Key:
NURR-1/RXRα = target: T1, NURR-1/RXRα (Homo sapiens, UniProt P19793); experiment: Transactivation test, NURR-1-Gal4/RXRα, luciferase reporter in Cos-7 cells; assay type: cell-based; conditions: for EC50: Cos-7 cells, NURR-1-Gal4/RXRα, luciferase reporter, read-out: hNurr1_RXRaFL EC50; for Emax: COS-7, induction level relative to reference XCT0135908 at 2×10^−5 M (=100%), read-out: hNurr1_RXRaFL Emax (%)
T1 construct: expressed in transfected cells; host or cells: Cos-7 cells

NURR-1/RXRγ = target: T2, NURR-1/RXRγ (Homo sapiens, UniProt P48443); experiment: Transactivation test, NURR-1-Gal4/RXRγ, luciferase reporter in Cos-7 cells; assay type: cell-based; conditions: for EC50: Cos-7 cells, NURR-1-Gal4/RXRγ, luciferase reporter, read-out: hNurr1_RXRgFL EC50; for Emax: COS-7, induction level relative to reference XCT0135908 at 2×10^−5 M (=100%), read-out: hNurr1_RXRgFL Emax (%)
T2 construct: expressed in transfected cells; host or cells: Cos-7 cells
T2 sequence (P48443 whole entry, the tested form may be a part): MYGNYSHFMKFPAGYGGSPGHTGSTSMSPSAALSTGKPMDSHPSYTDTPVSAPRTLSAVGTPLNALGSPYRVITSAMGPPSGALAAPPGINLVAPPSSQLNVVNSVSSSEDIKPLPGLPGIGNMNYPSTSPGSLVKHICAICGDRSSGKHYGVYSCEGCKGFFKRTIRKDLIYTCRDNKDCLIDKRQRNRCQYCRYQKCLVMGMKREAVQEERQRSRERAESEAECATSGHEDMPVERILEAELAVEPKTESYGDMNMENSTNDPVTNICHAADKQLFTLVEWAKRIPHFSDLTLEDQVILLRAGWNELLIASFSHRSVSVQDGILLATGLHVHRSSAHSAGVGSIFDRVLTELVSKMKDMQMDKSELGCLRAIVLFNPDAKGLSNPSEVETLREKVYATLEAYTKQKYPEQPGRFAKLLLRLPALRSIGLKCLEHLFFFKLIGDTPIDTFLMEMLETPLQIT
T2 sequence (P43354 whole entry partner, the tested form may be a part): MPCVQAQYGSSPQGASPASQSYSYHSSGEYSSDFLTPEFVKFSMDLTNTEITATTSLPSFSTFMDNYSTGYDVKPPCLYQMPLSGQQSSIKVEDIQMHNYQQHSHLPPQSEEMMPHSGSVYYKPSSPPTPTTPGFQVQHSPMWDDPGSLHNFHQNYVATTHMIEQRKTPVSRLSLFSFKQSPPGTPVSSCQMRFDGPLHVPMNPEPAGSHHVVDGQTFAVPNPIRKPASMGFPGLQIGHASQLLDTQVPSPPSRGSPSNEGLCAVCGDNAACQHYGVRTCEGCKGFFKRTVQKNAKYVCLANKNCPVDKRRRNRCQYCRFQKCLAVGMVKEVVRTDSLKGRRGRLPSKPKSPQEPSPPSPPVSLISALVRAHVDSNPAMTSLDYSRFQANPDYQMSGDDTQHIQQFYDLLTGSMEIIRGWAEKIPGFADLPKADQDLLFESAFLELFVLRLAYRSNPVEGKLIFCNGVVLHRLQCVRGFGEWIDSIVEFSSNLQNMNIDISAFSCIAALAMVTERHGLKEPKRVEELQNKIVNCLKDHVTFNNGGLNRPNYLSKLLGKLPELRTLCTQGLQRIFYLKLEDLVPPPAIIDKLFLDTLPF
T2 sequence (P04386 1-147 partner limits assumed): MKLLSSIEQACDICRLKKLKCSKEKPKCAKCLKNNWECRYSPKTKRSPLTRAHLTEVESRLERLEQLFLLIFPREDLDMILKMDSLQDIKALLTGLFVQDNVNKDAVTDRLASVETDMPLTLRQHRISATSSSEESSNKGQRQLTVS

[1] = Plasma pharmacokinetics in mice after oral administration; assay type: in vivo; conditions: mouse, male C57/Bl6 mice, oral 10 mg/kg; for AUC: sampling 15 min to 7 h, log-linear trapezoidal method, read-out: AUCplasma; for Cmax: suspension in 1% methylcellulose/0.1% Poloxamer 188
Procedure: (§1) Three series of in vivo tests were carried out with compounds representative of the invention, for the purpose of determining their pharmacokinetic plasma profile and their brain penetration.
1. Study of the Plasma Phannacokinectis in Mice After Oral Administration
Male C57/B16 mice (25-30 g) originating from the establishment Janvier, Le Genest-St-Isle, France were used for this study (9 mice per dose). The animals were fed with standard feed for rodents (Purina Mills, St. Louis, Mo.), placed in cages and subjected to light/darkness cycles of 12 h/12 h, the temperature of the room being maintained at 22±2° C. and the humidity level at 55±10%.
The mice were not deprived food before the administration. Water was provided at will throughout the study. The test compound was admistered orally at 10 mg/kg. For the oral administration at 10 mg/kg, the animals were green, by gavage, 10 mL/kg of a suspension of the test compound, prepared in 1% methylcellulose, 400 cps/0.1% Poloxamer 188/water.
The animals were sacrificed under anesthesia at times 15 min, 30 min, 1 h, 3 h and 7 h after gavage. The blood was collected at each time, and from each animal sacrificed 0.5 mL of blood collected in 1.5 mL tubes containing 20 μL of evaporated anticoagulant (solution of sodium heparinate at 1000 IU/mL) was centrifuged at 4500 g for 3 min in order to obtain approximately 200 μL of plasma. The plasma was divided up into 2 aliquots of 70 μL minimum, which were stoted at −20° C. until they were treated by protein precipitation and then analysis by liquid chromatography coupled to tandem mass spectrometry (LC-MS/MS) in order to quantify the compound tested.
The pharmacokinetic plasma parameters in the mice after oral administration were determined using a non-compartmental approach with the Phoenix WinNonLin software. The area under the curve (AUC0-1) was determined bv the log-linear trapezoidal method. The tesults are brought together in the following table.

[2] = Brain penetration in rats after intravenous administration; assay type: in vivo; conditions: rat; for Kp at 4 h: male, Wistar, intravenous, 4 mg/kg, ratio of Cmax brain to Cmax plasma after the 4 hours of infusion, rats, read-out: Kp (partition coefficient between the brain and the plasma); for Cmax at 4 h: male Wistar rats, 4 mg/kg iv infusion into the jugular vein for 4 hours, plasma at end of infusion
Procedure: as §1
2. Study of the Brain Penetration in Rats After Intravenous Administration
Male Wistar rats (250-300 g) originating from the establishment Janvier, Le Genest-St-Isle, France were used for this study (4 rats per study). The animals were fed with standard feed for rodents (Purina Mills, St. Louis, Mo.), placed in cages and subjected to light/darkness cycles of 12 h/12 h, the room temperature being maintained at 22±2° C. and the humidity level at 55±10%. The rats were not deprived food before the administration. Water was provided at will throughout the study.
The test compound was administered intravenously at 4 mg/kg by infusion into the jugular vein for 4 hours. For the intravenous administration, the animals were infused with 12 mL/kg of a solution of the test compound, prepared in 2% Cremophor EL/0.9% NaCl.
The animals were sacrificed under anesthesia after 4 hours of infusion. The blood and the brain were collected from each sacrificed animal 0.5 mL of blood collected in 1.5 mL tubes containing 20 μL of evaporated anticoagulant (solution of sodium heparinate at 1000 IU/mL) was centrifuged at 4500 g for 3 min in order to obtain approximately 200 μL of plasma. The plasma was divided up into 2 aliquots of 70 μL minimum, which were stored at −20° C. until they were treated by protein precipitation and then analysis by liquid chromatography coupled to tandem mass spectrometry (LC-MS/MS) in order to quantify the compound tested.
The brains were immersed in liquid nitrogen directly after they were removed, then stored at −20° C. for analysis. The brains were then ground in the presence of an aqueous/organic solvent mixture in order to obtain a homogenate. These homogenates were then centrifuged and the compound tested was extracted from the supernatant obtained, by liquid-liquid extraction, and then quantified by LC-MS/MS.
The brain penetration in the rats is represented by the Kp, which is the partition coefficient between the brain and the plasma. It is calculated by the ratio of the concentration measured in the brain (Cmax brain) and the plasma (Cmax plasma) after the 4 hours of infusion.

[3] = induction level relative to reference XCT0135908 at 2×10^−5 M (=100%)

T1 sequence (P19793 whole entry, the tested form may be a part): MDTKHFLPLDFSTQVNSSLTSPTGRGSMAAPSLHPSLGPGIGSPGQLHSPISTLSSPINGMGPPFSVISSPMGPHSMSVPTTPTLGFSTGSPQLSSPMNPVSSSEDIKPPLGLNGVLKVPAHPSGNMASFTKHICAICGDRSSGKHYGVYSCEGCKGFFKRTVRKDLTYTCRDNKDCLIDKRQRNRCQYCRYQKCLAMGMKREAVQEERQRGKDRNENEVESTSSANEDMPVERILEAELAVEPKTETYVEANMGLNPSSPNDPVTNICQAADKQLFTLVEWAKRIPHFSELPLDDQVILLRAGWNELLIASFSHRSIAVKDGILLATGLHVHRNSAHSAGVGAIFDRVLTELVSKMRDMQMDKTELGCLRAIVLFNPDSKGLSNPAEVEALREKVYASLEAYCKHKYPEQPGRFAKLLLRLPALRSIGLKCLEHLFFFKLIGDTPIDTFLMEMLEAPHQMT
T1 sequence (P43354 whole entry partner, the tested form may be a part): as the sequence (P43354 whole entry partner, the tested form may be a part) above
T1 sequence (P04386 1-147 partner limits assumed): as the sequence (P04386 1-147 partner limits assumed) above

Row | SMILES | EC50 (NURR-1/RXRα) | hNurr1_RXRaFL Emax (%) (NURR-1/RXRα; [3]) | EC50 (NURR-1/RXRγ) | hNurr1_RXRgFL Emax (%) (NURR-1/RXRγ; [3]) | AUC [1] | Cmax [1] | Kp at 4 h [2] | Cmax at 4 h [2] | melting point | Emax (NURR-1/RXRα) | Emax (NURR-1/RXRγ)
1 | CC(C)CC1Oc2cc(C(F)(F)F)ccc2N(c2cccc(N3CC(C(=O)O)C3)c2)C1=O (single isomer, unassigned; isomer 1) [Example 246-1, 1-[3-[2-isobutyl-3-oxo-7-(trifluoromethyl)-1,4-benzoxazin-4-yl]phenyl]azetidine-3-carboxylate acid, isomer 1] | 7 nM | 97% | 50 nM | 95% | 48200 ng·h/mL | 15200 ng/mL | 0.13 | 5800 ng/mL | 68 to 74 °C |  | 
2 | CCC1COc2cc(C(F)(F)F)cc(-c3cccc(N4CC(C(=O)O)C4)c3)c2N1 (stereo not drawn) [Example 186, 1-[3-[3-ethyl-7-(trifluoromethyl)-3.4-dihydro-2H-1,4-benzoxazin-5-yl]phenyl]azetidine-3-carboxylic acid] | 3 nM |  | 11 nM |  | 12100 ng·h/mL | 6420 ng/mL | 0.15 | 932 ng/mL | 61 to 64 °C | 102% | 94%
3 | CC1(C)CNc2c(cc(C(C)(C)C)cc2-c2cccc(N3CC(C(=O)[O-])C3)c2)O1.[Na+] [Example 187, sodium 1-[3-(7-tert-butyl-2,2-dimethyl-3,4-dihydro-1,4-benzoxazin-5-yl)phenyl]azetidine-3-carboxylate] | 5 nM |  | 23 nM |  | 5190 ng·h/mL | 2740 ng/mL | 1.27 | 1360 ng/mL | 205 to 213 °C | 91% | 80%
4 | CC(C)c1cc2c(c(-c3cccc(N4CC(C(=O)[O-])C4)c3)c1)NCC1(CCC1)O2.[Na+] [Example 196, sodium 1-[3-(7-isopropylspiro[3,4-dihydro-1,4-benzoxazine-2,1′-cyclobutane]-5-yl)phenyl]azetidine-3-carboxylate] | 11 nM |  | 42 nM |  | 34100 ng·h/mL | 14100 ng/mL | 0.44 | 1920 ng/mL | 143 to 154 °C | 98% | 86%
5 | CC(C)c1cc2c(c(-c3cccc(N4CC(C(=O)O)C4)c3)c1)NCCC2 [Example 199, 1-[3-(6-isopropyl-1,2,3,4-tetrahydroquinolin-8-yl)phenyl]azetidine-3-carboxylic acid] | 24 nM |  | 95 nM |  | 19000 ng·h/mL | 17500 ng/mL | 0.28 | 4920 ng/mL | 77 to 79 °C | 103% | 117%
6 | CC(C)c1cc2c(c(-c3cccc(N4CC(C(=O)O)C4)c3)c1)NCCC(C)(C)O2 [Example 200, 1-[3-(8-isopropyl-2,2-dimethyl-4,5-dihydro-3H-1,5-benzoxazepin-6-yl)phenyl]azetidine-3-carboxylic acid] | 127 nM |  | 244 nM |  | 2920 ng·h/mL | 3800 ng/mL | 0.19 | 1010 ng/mL | 74 to 79 °C | 95% | 78%
7 | CCC1COc2cc(C(F)(F)F)ccc2N1c1cccc(N2CC(C(=O)O)C2)c1 (stereo not drawn) [Example 217, 1-[3-[3-ethyl-7-(trifluoromethyl)-2,3-dihydro-1,4-benzoxazin-4-yl]phenyl]azetidine-3-carboxylic acid] | 14 nM |  | 46 nM |  | 30300 ng·h/mL | 10200 ng/mL |  |  | 61 to 74 °C | 109% | 125%
8 | CC1(C)CN(c2cccc(N3CC(C(=O)[O-])C3)c2)c2ccc(C(C)(C)C)cc2O1.[Na+] [Example 225, sodium 1-[3-(7-tert-butyl-2,2-dimethyl-3-H-1,4-benzoxazin-4-yl)phenyl]azetidine-3-carboxylate] | 79 nM |  | 173 nM |  | 13700 ng·h/mL | 6430 ng/mL | 0.42 | 3260 ng/mL | 223 to 227 °C | 113% | 122%
9 | CC(C)c1ccc2c(c1)OC(C)(C)CN2c1cccc(N2CC(C(=O)O)C2)c1 [Example 228, 1-[3-(7-isopropyl-2,2 dimethyl-3H-1,4-benzoxazin-4-yl)phenyl]azetidine-3-carboxylic acid] | 97 nM |  | 147 nM |  | 15500 ng·h/mL | 6970 ng/mL | 0.29 | 2160 ng/mL | 64 to 70 °C | 111% | 112%
10 | CC1(C)C=C(c2cccc(N3CC(C(=O)[O-])C3)c2)c2ccc(C(F)(F)F)cc2O1.[Na+] [Example 263, sodium 1-[3-[2,2-dimethyl-7-(trifluoromethyl)chromen-4-yl]phenyl]azetidine-3-carboxylate] | 0.81 nM |  | 2 nM |  | 33700 ng·h/mL | 7560 ng/mL | 0.36 | 7660 ng/mL | 172 to 195 °C | 113% | 99%
11 | CC1(C)CN(c2cccc(N3CC(C(N)=O)C3)c2)c2ccc(C(F)(F)F)cc2O1 [Example 273, 1-[3-[2,2-dimethyl-7-(trifluoromethyl)-3H-1,4-benzoxazin-4-yl]phenyl]azetidine-3-carboxamide] | 6 nM |  | 12 nM |  | 372 ng·h/mL | 584 ng/mL | 1.81 | 98 ng/mL | 100 °C | 110% | 123%
12 | CNC(=O)C1CN(c2cccc(N3CC(C)(C)Oc4cc(C(F)(F)F)ccc43)c2)C1 [Example 274, 1-[3-[2,2-dimethyl-7-(trifluoromethyl)3H-1,4-nemzoxazin-4-yl]phenyl]-N-methylazetidine-3-carboxamide] | 6 nM |  | 8 nM |  | 576 ng·h/mL | 252 ng/mL | 3.06 | 337 ng/mL |  | 110% | 110%
